According to US20140128352A1, “COMPOUNDS AND METHODS FOR MODULATING MITOCHONDRIAL METABOLISM AND REACTIVE OXYGEN SPECIES PRODUCTION” (Buck Institute for Research on Aging, priority 2012, published 2014):
Read-outs that look alike come from different tables or passages of the source.

Key:
[1] = target: T1, succinate dehydrogenase/complex II (SDH) (Rattus norvegicus, UniProt P21913+Q641Z9+Q6PCT8+Q920L2); test: High-throughput screen: ROS production from succinate dehydrogenase/complex II (SDH); format: biochemical; details: percent change in ROS from DMSO controls; for inhibition at 2.5 µM: Table 7
T1 construct: freshly isolated muscle mitochondria were assayed; from tissue; host or cells: rat skeletal muscle mitochondria (Wistar, Harlan Laboratories)
T1 sequence (Q920L2 35-656): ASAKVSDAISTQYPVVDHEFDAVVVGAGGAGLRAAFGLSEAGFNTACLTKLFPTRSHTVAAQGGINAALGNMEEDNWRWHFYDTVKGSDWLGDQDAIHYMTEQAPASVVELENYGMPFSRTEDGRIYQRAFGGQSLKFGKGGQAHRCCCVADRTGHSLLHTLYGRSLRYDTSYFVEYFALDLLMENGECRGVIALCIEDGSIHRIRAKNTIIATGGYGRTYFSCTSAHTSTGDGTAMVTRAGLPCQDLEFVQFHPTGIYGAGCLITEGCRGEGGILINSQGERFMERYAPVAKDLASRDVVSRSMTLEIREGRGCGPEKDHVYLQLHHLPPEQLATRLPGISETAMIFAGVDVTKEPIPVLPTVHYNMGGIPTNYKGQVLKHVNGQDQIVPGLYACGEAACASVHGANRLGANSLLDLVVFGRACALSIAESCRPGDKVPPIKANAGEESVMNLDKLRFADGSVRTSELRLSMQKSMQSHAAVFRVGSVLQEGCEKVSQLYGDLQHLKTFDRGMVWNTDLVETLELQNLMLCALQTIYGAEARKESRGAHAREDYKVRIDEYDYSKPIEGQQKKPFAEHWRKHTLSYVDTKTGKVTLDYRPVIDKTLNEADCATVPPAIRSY
T1 sequence (P21913 31-282): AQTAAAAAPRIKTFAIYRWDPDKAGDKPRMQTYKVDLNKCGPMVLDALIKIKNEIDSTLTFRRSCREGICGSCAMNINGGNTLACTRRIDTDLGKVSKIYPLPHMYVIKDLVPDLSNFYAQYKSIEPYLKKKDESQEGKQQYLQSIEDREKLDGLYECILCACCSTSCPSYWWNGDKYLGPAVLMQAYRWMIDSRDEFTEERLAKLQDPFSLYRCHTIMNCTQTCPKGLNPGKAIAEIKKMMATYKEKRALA
T1 sequence (Q641Z9 30-169 limits assumed): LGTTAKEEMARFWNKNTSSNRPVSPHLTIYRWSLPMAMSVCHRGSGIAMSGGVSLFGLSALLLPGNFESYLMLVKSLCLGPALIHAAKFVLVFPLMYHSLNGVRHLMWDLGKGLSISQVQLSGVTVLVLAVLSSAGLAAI
T1 sequence (Q6PCT8 57-159): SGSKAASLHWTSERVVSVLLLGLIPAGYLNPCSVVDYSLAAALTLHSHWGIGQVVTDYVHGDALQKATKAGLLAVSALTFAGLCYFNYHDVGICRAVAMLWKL

[2] = target: T2, glycerol-3-phosphate dehydrogenase (GPDH) (Rattus norvegicus, UniProt P35571); test: High-throughput screen: ROS production from glycerol-3-phosphate dehydrogenase (GPDH); format: biochemical; parameters: inhibition: dose or concentration left out as unconfirmed; details: for inhibition: Table 7; for inhibition / GPDH: percent change in ROS from DMSO controls
T2 construct: The activity of GPDH in intact mitochondria (0.3 mg/mL) was measured; from tissue; host or cells: rat skeletal muscle mitochondria (Wistar, Harlan Laboratories)
T2 sequence (P35571 43-727): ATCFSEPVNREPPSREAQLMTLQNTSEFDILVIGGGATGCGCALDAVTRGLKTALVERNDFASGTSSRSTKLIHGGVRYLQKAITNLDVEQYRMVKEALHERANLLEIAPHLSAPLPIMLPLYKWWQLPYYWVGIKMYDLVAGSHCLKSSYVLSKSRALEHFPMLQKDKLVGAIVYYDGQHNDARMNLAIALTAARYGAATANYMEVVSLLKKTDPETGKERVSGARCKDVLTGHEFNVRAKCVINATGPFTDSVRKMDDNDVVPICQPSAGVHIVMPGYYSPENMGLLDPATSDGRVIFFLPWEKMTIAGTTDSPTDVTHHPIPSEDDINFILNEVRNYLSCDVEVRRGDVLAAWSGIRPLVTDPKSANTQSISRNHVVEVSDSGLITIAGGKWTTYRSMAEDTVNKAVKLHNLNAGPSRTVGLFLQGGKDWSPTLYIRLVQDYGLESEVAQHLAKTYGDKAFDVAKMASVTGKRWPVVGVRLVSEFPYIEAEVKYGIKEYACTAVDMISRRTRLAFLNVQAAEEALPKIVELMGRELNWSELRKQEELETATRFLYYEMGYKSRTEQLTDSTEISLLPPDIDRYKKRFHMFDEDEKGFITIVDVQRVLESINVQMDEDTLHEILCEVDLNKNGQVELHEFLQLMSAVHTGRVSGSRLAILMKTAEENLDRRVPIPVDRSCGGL

[3] = target: T3, flavin binding site of complex I (IF) (Rattus norvegicus, UniProt Q5XIH3); test: High-throughput screen: ROS production from flavin binding site of complex I (IF); format: biochemical
T3 construct: freshly isolated muscle mitochondria were assayed; from tissue; host or cells: rat skeletal muscle mitochondria (Wistar, Harlan Laboratories)
T3 sequence (Q5XIH3 21-464 limits assumed, one chain of several): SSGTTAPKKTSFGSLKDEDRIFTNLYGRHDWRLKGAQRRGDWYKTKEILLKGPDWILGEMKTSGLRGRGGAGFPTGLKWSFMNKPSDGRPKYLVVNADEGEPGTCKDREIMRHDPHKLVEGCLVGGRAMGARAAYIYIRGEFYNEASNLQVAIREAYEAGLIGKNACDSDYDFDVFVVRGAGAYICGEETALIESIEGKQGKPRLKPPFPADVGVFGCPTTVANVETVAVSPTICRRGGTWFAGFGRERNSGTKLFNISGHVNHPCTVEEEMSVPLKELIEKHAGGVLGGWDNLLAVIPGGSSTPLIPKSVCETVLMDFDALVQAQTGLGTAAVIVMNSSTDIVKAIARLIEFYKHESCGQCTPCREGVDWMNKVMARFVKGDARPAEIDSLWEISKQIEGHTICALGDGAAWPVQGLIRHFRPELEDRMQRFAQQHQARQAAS

[4] = target: T4, outer ubiquinone binding site of complex III (IIIQO) (Rattus norvegicus, UniProt P00159+P20788); test: High-throughput screen: ROS production from outer ubiquinone binding site of complex III (IIIQO); format: biochemical; details: for IIIQO: Table 8
T4 construct: freshly isolated muscle mitochondria were assayed; from tissue; host or cells: rat skeletal muscle mitochondria (Wistar, Harlan Laboratories)

[5] = test system: mitochondrial membrane potential (ΔΨm); test: Membrane potential (ΔΨm) counterscreen with TMRM; details: malate, nigericin
[6] = test system: ubiquinone binding site of complex I (IQ); test: High-throughput screen: ROS production from ubiquinone binding site of complex I (IQ), isolated skeletal muscle mitochondria; format: biochemical, rat; details: for IQ: percent change in ROS from DMSO controls; for % Reduction in ROS production (IQ): Table 2, 5 mM succinate, compounds 2.5 μM, percent change from DMSO, positive control −100%
Experimental: Skeletal muscle mitochondria were isolated from 5-8 week old female Wistar rats (Harlan Laboratories). Minced muscle was homogenized in buffer containing bacterial protease Type VIII prior to differential centrifugation to separate mitochondria from other tissue components. Unless otherwise stated, freshly isolated muscle mitochondria were assayed in buffer containing 120 mM KCl, 5 mM HEPES, 1 mM EGTA, 0.3% (w/v) bovine serum albumin. Where indicated, CaCl2 was added to yield a final free concentration of 250 nM calcium at pH 7.0 at 37° C.
Compounds (10 mM in DMSO) were randomly selected from a library of 24,000 compounds obtained from ChemBridge and curated by the lab of Robert Hughes at the Buck Institute. Master screening plates were prepared using a Biomek FX liquid handling workstation (Beckman) to transfer 1 μL of each compound into individual wells on 96-well storage plates (80 compounds per plate). Master plates were sealed with foil and stored at −80° C. Just prior to use, plates were brought to room temperature and diluted 300-fold with standard buffer (13.3X=33.3 μM). To monitor the performance of each assay throughout screening and to provide intra-plate normalization reference points, DMSO negative controls and known mitochondrial inhibitor positive controls were included on each Master compound plate.
Total amounts of superoxide and H2O2 production were determined fluorometrically as H2O2, without distinguishing between them, in the presence of exogenous superoxide dismutase (25 units/mL final), horseradish peroxidase (1 unit/mL final), and Amplex UltraRed (25 μM final) as described (Affourtit, C. et al. (2012) Measurement of proton leak and electron leak in isolated mitochondria. Methods Mol. Biol. 810: 165-82). Just prior to use, a bulk 3.3X solution was made in standard buffer and distributed into a 2 mL deep well 96-well transfer plate.
To assess the effects of a compound on ROS production from the ubiquinone binding site of complex I (IQ), Start Solution containing 5 mM succinate was distributed into standard 96-well transfer plates. A Biomek FX workstation was programmed to dispense solutions into black 96-well assay plates. Solutions were dispensed to all assay plates in the following order: ROS Detection solution described in Example 3, Mitochondria solution described in Example 1 to a final concentration of 0.1 mg/ml, and Compound dilutions described in Example 2. Duplicate assay plates were made and each was initiated by the addition of 3.3X Start solution containing 5 mM succinate. Plates were incubated in the dark at room temperature for 30-40 minutes before acquiring endpoint fluorescence using a Victor 3V plate reader (Perkin Elmer) equipped with 550/590 nm excitation/emission filters.
The fluorescence values in each well were scaled as the percent change from the intra-plate DMSO controls with the appropriate inhibitor positive controls defined as −100%. Following initial scaling, intra-plate normalized values were subjected to Tukey's two-way median polish to remove row and column dependent positional effects (Malo et al, 2006).

[7] = Table 3, 5 mM glutamate, 5 mM malate, 4 μM rotenone, compounds 2.5 μM, percent change from DMSO, positive control −100%, read-out: % Reduction in ROS production (IF)
[8] = Table 7, percent change in ROS from DMSO controls, read-out: IF
[9] = Table 8, percent change in ROS from DMSO controls
[10] = Table 9, percent change in ROS from DMSO controls
[11] = Table 7, percent change in ROS from DMSO controls, read-out: IIIQO
[12] = percent change in ROS from DMSO controls
[13] = Table 9, percent change in ROS from DMSO controls, read-out: IIIQo
[14] = Table 4, 5 mM succinate, 4 μM rotenone, 2.5 μM antimycin A, compounds 2.5 μM, percent change from DMSO, read-out: % Reduction in ROS production (IIIQO)

## O=C(COc1ccc(Cl)cc1Cl)Nc1ccc(F)cc1F [Compound 24]
[1]
  inhibition at 2.5 µM: 1.5%
[1]; Table 8
  SDH: −1.5
[1]; Table 9
  SDH: −1.5
[2]
  inhibition: 2%
[2]; Table 8
  GPDH: −2.0
[2]; Table 9
  GPDH: −2.0
[3]; [7]
  inhibition at 2.5 µM: 19.8%
[3]; [8]
  inhibition at 2.5 µM: 19.8%
[3]; [9]
  IF: −19.8
[3]; [10]
  IF: −19.8
[4]; [11]
  inhibition at 2.5 µM: 1.3%
[4]; [12]
  IIIQO: −1.3
[4]; [13]
  inhibition at 2.5 µM: 1.3%
[5]; Table 8, glutamate
  ΔΨm: 0.1
[5]; Table 9, glutamate
  ΔΨm: 0.1
[6]; Table 7
  IQ: −1.0
[6]; Table 8
  IQ: −1.0
[6]; Table 9
  IQ: −1.0

## O=C(O)/C=C/C(=O)Nc1ccc(/C=C/c2ccccc2)cc1 [Compound 49]
[1]
  inhibition at 2.5 µM: 1%
[1]; Table 8
  SDH: −1.0
[1]; Table 9
  SDH: −1.0
[2]; Table 6, 25 mM glycerol phosphate, rotenone, antimycin A, malonate, myxothiazol, compounds 2.5 μM, scaled to IQ positive controls, read-out: % Reduction in ROS Production (GPDH)
  inhibition at 2.5 µM: 12.7%
[2]
  inhibition: 12.7%
[2]; Table 8
  GPDH: −12.7
[2]; Table 9
  GPDH: −12.7
[3]; [8]
  inhibition at 2.5 µM: -1%
[3]; [9]
  IF: 1.0
[3]; [10]
  IF: 1.0
[4]; [11]
  inhibition at 2.5 µM: -10%
[4]; [12]
  IIIQO: 10.0
[4]; [13]
  inhibition at 2.5 µM: -10%
[5]; Table 8, glutamate
  ΔΨm: −0.3
[5]; Table 9, glutamate
  ΔΨm: −0.3
[6]; Table 7
  IQ: 1.7
[6]; Table 8
  IQ: 1.7
[6]; Table 9
  IQ: 1.7

## Fc1ccc(SCCc2ccccn2)cc1 [Compound 42]
[1]
  inhibition at 2.5 µM: -0.7%
[1]; Table 8
  SDH: 0.7
[1]; Table 9
  SDH: 0.7
[2]
  inhibition: 0.3%
[2]; Table 8
  GPDH: −0.3
[2]; Table 9
  GPDH: −0.3
[3]; [8]
  inhibition at 2.5 µM: 2.6%
[3]; [9]
  IF: −2.6
[3]; [10]
  IF: −2.6
[4]; [14]
  inhibition at 2.5 µM: 24.1%
[4]; [11]
  inhibition at 2.5 µM: 24.1%
[4]; [12]
  IIIQO: −24.1
[4]; [13]
  inhibition at 2.5 µM: 24.1%
[5]; Table 8, glutamate
  ΔΨm: 0.4
[5]; Table 9, glutamate
  ΔΨm: 0.4
[6]; Table 7
  IQ: 7.9
[6]; Table 8
  IQ: 7.9
[6]; Table 9
  IQ: 7.9

## COc1cccc(/C=C/C(=O)c2c(O)cc(C)oc2=O)c1O [Compound 17]
[1]
  inhibition at 2.5 µM: 3.4%
[1]; Table 8
  SDH: −3.4
[1]; Table 9
  SDH: −3.4
[2]
  inhibition: 3.6%
[2]; Table 8
  GPDH: −3.6
[2]; Table 9
  GPDH: −3.6
[3]; [7]
  inhibition at 2.5 µM: 26%
[3]; [8]
  inhibition at 2.5 µM: 26%
[3]; [9]
  IF: −26.0
[3]; [10]
  IF: −26.0
[4]; [11]
  inhibition at 2.5 µM: 6%
[4]; [12]
  IIIQO: −6.0
[4]; [13]
  inhibition at 2.5 µM: 6%
[5]; Table 8, glutamate
  ΔΨm: 0.3
[5]; Table 9, glutamate
  ΔΨm: 0.3
[6]; Table 7
  IQ: −7.4
[6]; Table 8
  IQ: −7.4
[6]; Table 9
  IQ: −7.4

## C=CCSc1nc(N)c(C#N)c(CC)c1C#N [Compound 7]
[1]
  inhibition at 2.5 µM: -2.1%
[1]; Table 8
  SDH: 2.1
[1]; Table 9
  SDH: 2.1
[2]
  inhibition: -5.6%
[2]; Table 8
  GPDH: 5.6
[2]; Table 9
  GPDH: 5.6
[3]; [8]
  inhibition at 2.5 µM: -1.3%
[3]; [9]
  IF: 1.3
[3]; [10]
  IF: 1.3
[4]; [11]
  inhibition at 2.5 µM: -9.2%
[4]; [12]
  IIIQO: 9.2
[4]; [13]
  inhibition at 2.5 µM: -9.2%
[5]; Table 8, glutamate
  ΔΨm: −0.5
[5]; Table 9, glutamate
  ΔΨm: −0.5
[6]
  % Reduction in ROS production (IQ): −36.5%
[6]; Table 7
  IQ: −36.5
[6]; Table 8
  IQ: −36.5
[6]; Table 9
  IQ: −36.5

## Cc1ccc(CCSc2ccc(F)cc2)cn1 [Compound 35]
[1]
  inhibition at 2.5 µM: -0.2%
[1]; Table 8
  SDH: 0.2
[1]; Table 9
  SDH: 0.2
[2]
  inhibition: 5.3%
[2]; Table 8
  GPDH: −5.3
[2]; Table 9
  GPDH: −5.3
[3]; [8]
  inhibition at 2.5 µM: 0.7%
[3]; [9]
  IF: −0.7
[3]; [10]
  IF: −0.7
[4]; [14]
  inhibition at 2.5 µM: 34.9%
[4]; [11]
  inhibition at 2.5 µM: 34.9%
[4]; [12]
  IIIQO: −34.9
[4]; [13]
  inhibition at 2.5 µM: 34.9%
[5]; Table 8, glutamate
  ΔΨm: 0.6
[5]; Table 9, glutamate
  ΔΨm: 0.6
[6]; Table 7
  IQ: 1.3
[6]; Table 8
  IQ: 1.3
[6]; Table 9
  IQ: 1.3

## COc1ccc(NS(=O)(=O)c2cccc(C(=O)Nc3ccc(C)cc3)c2)cc1 [Compound 11]
[1]
  inhibition at 2.5 µM: 0.2%
[1]; Table 8
  SDH: −0.2
[1]; Table 9
  SDH: −0.2
[2]
  inhibition: 5%
[2]; Table 8
  GPDH: −5.0
[2]; Table 9
  GPDH: −5.0
[3]; [8]
  inhibition at 2.5 µM: -3.3%
[3]; [9]
  IF: 3.3
[3]; [10]
  IF: 3.3
[4]; [11]
  inhibition at 2.5 µM: 1.9%
[4]; [12]
  IIIQO: −1.9
[4]; [13]
  inhibition at 2.5 µM: 1.9%
[5]; Table 8, glutamate
  ΔΨm: −0.4
[5]; Table 9, glutamate
  ΔΨm: −0.4
[6]
  % Reduction in ROS production (IQ): −23.8%
[6]; Table 7
  IQ: −23.8
[6]; Table 8
  IQ: −23.8
[6]; Table 9
  IQ: −23.8

## Cc1cc(C)c(S(=O)(=O)N2CCCC2=O)c(C)c1 [Compound 40]
[1]
  inhibition at 2.5 µM: 2.7%
[1]; Table 8
  SDH: −2.7
[1]; Table 9
  SDH: −2.7
[2]
  inhibition: 4.2%
[2]; Table 8
  GPDH: −4.2
[2]; Table 9
  GPDH: −4.2
[3]; [8]
  inhibition at 2.5 µM: -1.8%
[3]; [9]
  IF: 1.8
[3]; [10]
  IF: 1.8
[4]; [14]
  inhibition at 2.5 µM: 25.1%
[4]; [11]
  inhibition at 2.5 µM: 25.1%
[4]; [12]
  IIIQO: −25.1
[4]; [13]
  inhibition at 2.5 µM: 25.1%
[5]; Table 8, glutamate
  ΔΨm: 0.7
[5]; Table 9, glutamate
  ΔΨm: 0.7
[6]; Table 7
  IQ: 4.3
[6]; Table 8
  IQ: 4.3
[6]; Table 9
  IQ: 4.3

## CC(C)(C)NS(=O)(=O)c1ccc2c(c1)C(=O)c1ccccc1C2=O [Compound 1]
[1]
  inhibition at 2.5 µM: 8.2%
[1]; Table 8
  SDH: −8.2
[1]; Table 9
  SDH: −8.2
[2]
  inhibition: -4.1%
[2]; Table 8
  GPDH: 4.1
[2]; Table 9
  GPDH: 4.1
[3]; [8]
  inhibition at 2.5 µM: -10%
[3]; [9]
  IF: 10.0
[3]; [10]
  IF: 10.0
[4]; [11]
  inhibition at 2.5 µM: -1%
[4]; [12]
  IIIQO: 1.0
[4]; [13]
  inhibition at 2.5 µM: -1%
[5]; Table 8, glutamate
  ΔΨm: −1.5
[5]; Table 9, glutamate
  ΔΨm: −1.5
[6]
  % Reduction in ROS production (IQ): −60.6%
[6]; Table 7
  IQ: −60.6
[6]; Table 8
  IQ: −60.6
[6]; Table 9
  IQ: −60.6
